Experimental data as given in the supplement of paper PMC4862054.

Assays:
Conditions in all cases: incubation time: 72 h
BT-474 [1] = test: normalised response (% of control), CellTox Green; higher = less cell death (100 = DMSO, 0 = benzethonium chloride kill control)
Outline: (§1)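 Every value is a normalised signal taken at one concentration of a dilution series. Compound was placed in 384-well plates at 5 concentrations in 10-fold steps over a compound-specific 10,000-fold range, and 20 µl of breast cancer cell suspension was seeded onto it. After 72 h, CellTox Green fluorescence (485/520 nm) was measured first and CellTiter-Glo luminescence second, following 10 min at room temperature. Each plate was scaled to 0.1 % DMSO (100) and a positive kill control (0).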

BT-549 [2] = test: as above
Outline: as §1

CAL-120 [3] = test: as above
Outline: as §1

CAL-51 [4] = test: as above
Outline: as §1

CAL-85-1 [5] = test: as above
Outline: as §1

DU-4475 [6] = test: as above
Outline: as §1

HCC1143 [7] = test: as above
Outline: as §1

HCC1599 [8] = test: as above
Outline: as §1

HCC1937 [9] = test: as above
Outline: as §1

HDQ-P1 [10] = test: as above
Outline: as §1

Hs578T [11] = test: as above
Outline: as §1

MCF-10A [12] = test: as above
Outline: as §1

MDA-MB-231 [13] = test: as above
Outline: as §1

MDA-MB-436 [14] = test: as above
Outline: as §1

MDA-MB-453 [15] = test: as above
Outline: as §1

MDA-MB-468 [16] = test: as above
Outline: as §1

MFM-223 [17] = test: as above
Outline: as §1

BT-474 [18] = test: normalised response (% of control), CellTiter-Glo; higher = more viable cells (100 = DMSO, 0 = benzethonium chloride kill control)
Protocol: (§2)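 DSRT, 72 h incubation, CellTox Green / CellTiter-Glo readout. Signal is normalised to DMSO and benzethonium chloride controls. Value is the normalised response at dose 3.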

BT-549 [19] = test: as above
Protocol: as §2

CAL-120 [20] = test: as above
Protocol: as §2

CAL-148 [21] = test: as above
Protocol: as §2

CAL-51 [22] = test: as above
Protocol: as §2

CAL-85-1 [23] = test: as above
Protocol: as §2

DU-4475 [24] = test: as above
Protocol: as §2

HCC1143 [25] = test: as above
Protocol: as §2

HCC1599 [26] = test: as above
Protocol: as §2

HCC1937 [27] = test: as above
Protocol: as §2

HDQ-P1 [28] = test: as above
Protocol: as §2

Hs578T [29] = test: as above
Protocol: as §2

MCF-10A [30] = test: as above
Protocol: as §2

MDA-MB-231 [31] = test: as above
Protocol: as §2

MDA-MB-436 [32] = test: as above
Protocol: as §2

MDA-MB-453 [33] = test: as above
Protocol: as §2

MDA-MB-468 [34] = test: as above
Protocol: as §2

MFM-223 [35] = test: as above
Protocol: as §2

SK-BR-3 = test: as above
Protocol: as §2

CAL-148 [36] = test: normalised response (% of control), CellTox Green; higher = less cell death (100 = DMSO, 0 = benzethonium chloride kill control)
Outline: as §1

| Compound | normalised response (BT-474 [1]) [%] | normalised response (BT-549 [2]) [%] | normalised response (CAL-120 [3]) [%] | normalised response (CAL-51 [4]) [%] | normalised response (CAL-85-1 [5]) [%] | normalised response (DU-4475 [6]) [%] | normalised response (HCC1143 [7]) [%] | normalised response (HCC1599 [8]) [%] | normalised response (HCC1937 [9]) [%] | normalised response (HDQ-P1 [10]) [%] | normalised response (Hs578T [11]) [%] | normalised response (MCF-10A [12]) [%] | normalised response (MDA-MB-231 [13]) [%] | normalised response (MDA-MB-436 [14]) [%] | normalised response (MDA-MB-453 [15]) [%] | normalised response (MDA-MB-468 [16]) [%] | normalised response (MFM-223 [17]) [%] | normalised response (BT-474 [18]) [%] | normalised response (BT-549 [19]) [%] | normalised response (CAL-120 [20]) [%] | normalised response (CAL-148 [21]) [%] | normalised response (CAL-51 [22]) [%] | normalised response (CAL-85-1 [23]) [%] | normalised response (DU-4475 [24]) [%] | normalised response (HCC1143 [25]) [%] | normalised response (HCC1599 [26]) [%] | normalised response (HCC1937 [27]) [%] | normalised response (HDQ-P1 [28]) [%] | normalised response (Hs578T [29]) [%] | normalised response (MCF-10A [30]) [%] | normalised response (MDA-MB-231 [31]) [%] | normalised response (MDA-MB-436 [32]) [%] | normalised response (MDA-MB-453 [33]) [%] | normalised response (MDA-MB-468 [34]) [%] | normalised response (MFM-223 [35]) [%] | normalised response (SK-BR-3) [%] | normalised response (CAL-148 [36]) [%] |
| --- | --- | --- | --- | --- | --- | --- | --- | --- | --- | --- | --- | --- | --- | --- | --- | --- | --- | --- | --- | --- | --- | --- | --- | --- | --- | --- | --- | --- | --- | --- | --- | --- | --- | --- | --- | --- | --- |
| O=C(O)CCCc1ccc(N(CCCl)CCCl)cc1 [Chlorambucil] (100 nM) | 101 | 101 | 92.9 | 85.3 | 94.9 | 102 | 94.9 | 99 | 98.2 | 107 | 105 | 101 | 102 | 84.8 | 102 | 118 | 98.8 | 98.7 | 108 | 96.6 | 107 | 79.5 | 105 | 104 | 103 | 100 | 94 | 103 | 102 | 99.9 | 106 | 99.3 | 104 | 106 | 98.6 | 106 | – |
| NS(=O)(=O)OC[C@@H]1C[C@@H](n2ccc3c(N[C@H]4CCc5ccccc54)ncnc32)C[C@@H]1O [Pevonedistat] (100 nM) | 102 | 106 | 102 | 36.4 | 81.5 | 97.8 | 120 | 104 | 119 | 99.8 | 107 | 108 | 119 | 102 | 112 | 128 | 65.2 | 114 | 73.2 | 91.1 | 120 | 51.5 | 77.8 | 68.8 | 90.1 | 75.6 | 96.3 | 102 | 98.7 | 113 | 118 | 82.9 | 88.9 | 56.2 | 79.1 | 35.6 | 94.7 |
| CN(C)C[C@@H]1CCn2cc(c3ccccc32)C2=C(C(=O)NC2=O)c2cn(c3ccccc23)CCO1 [Ruboxistaurin] (100 nM) | 98.9 | 109 | 103 | 101 | 109 | 99.3 | 99.5 | 96.2 | 90 | 102 | 66.2 | 95.6 | 112 | 79.8 | 92.7 | 141 | 103 | 99.5 | 102 | 92.7 | 94.5 | 105 | 96.6 | 95.5 | 94.7 | 105 | 95.1 | 99.3 | 98 | 89.3 | 96.1 | 98 | 105 | 93.8 | 99.8 | 93 | 102 |
| C/C(=C\c1csc(C)n1)[C@@H]1C[C@@H]2O[C@]2(C)CCC[C@H](C)[C@H](O)[C@@H](C)C(=O)C(C)(C)[C@@H](O)CC(=O)O1 [Patupilone] (10 nM) | 95.7 | 97.3 | 93.6 | 29.3 | 79.5 | 99.5 | 108 | 106 | 99.4 | 110 | 84 | 103 | 92.9 | 76.8 | 97.9 | 34.5 | 96.3 | 94.6 | 55.1 | 105 | 105 | 56 | 80.2 | 104 | 77.5 | 114 | 100 | 98.7 | 90.9 | 89.1 | 97.9 | 79.9 | 101 | 53.4 | 107 | 99.7 | 102 |
